The assay concerns GBM8 cells (human glioblastoma neurosphere cell culture). Description: GBM8 viability assay (Cell Titer Glo luminescence, 3 days). In kind it is cell-based. To be noted: 72 h, 3 days incubation. In short, it runs like this:
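Patient-derived neurosphere cells (4000/well) in NeuroCult medium with rh EGF, rh bFGF and heparin, ultra-low attachment, dosed after overnight settling; 3 days at 37 °C. CellTiter-Glo luminescence versus DMSO controls gave % growth inhibition; IC50 from 4-parameter fit of serial dilutions.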

The structures appear in SMILES notation.

What is called IC50 is the midpoint of a concentration-inhibition curve. A low value points to higher potency. `Cc1cc(NCCCN(C)C)nc(NC(=O)Nc2ccc(Cl)cc2)n1` [Compound 44, 1-{2-[3-(4-chloro-phenyl)ureido]-6-methyl-4-pyrimidin-ylamino}-3-(dimethylamino)propane] had an IC50 of less than 1000 nM. In turn, `Cc1cc(NCC(F)(F)CO)nc(NC(=O)Nc2ccc(Cl)c(C(F)(F)F)c2)n1` [Compound 53] returned an IC50 of less than 1000 nM. Regarding `Cc1cc(NCC2CCCN(C)C2)nc(NC(=O)Nc2ccc(C)c(C)c2)n1` (stereo not shown) [Compound 258], the IC50 fell in the range of 1000 to 10000 nM. The value for `Cc1cc(NCCN)nc(NC(=O)Nc2cccc(C(F)(F)F)c2)n1` [Compound 182] was less than 1000 nM.

For `Cc1cc(NCCCCN)nc(NC(=O)Nc2ccc(Cl)c(Cl)c2)n1` [Compound 15], the IC50 is less than 1000 nM. `Cc1cc(NCCCN(C)C)nc(NC(=O)Nc2ccc(OC(F)(F)F)cc2)n1` [Compound 85, 1-(4-((3-(dimethylamino)propyl)amino)-6-methylpyrimidin-2-yl)-3-(4-(trifluoromethoxy)phenyl)urea] showed an IC50 of less than 1000 nM.

As to `Cc1cc(NCCCCN)nc(NC(=O)Nc2ccc(C(F)(F)F)cc2)n1` [Compound 197], the IC50 was less than 1000 nM.

`CNCCCNc1cc(C)nc(NC(=O)Nc2ccc(Cl)c(Cl)c2)n1` [Compound 29] showed a half-maximal inhibitory concentration (IC50) of less than 1000 nM. `COC(=O)CCNc1cc(C)nc(NC(=O)Nc2ccc(F)c(Cl)c2)n1` [Compound 167] came in with an IC50 of 1000 to 10000 nM.

Regarding `Cc1cc(NCCCCN)nc(NC(=O)Nc2ccc(F)c(C(F)(F)F)c2)n1` [Compound 112], the concentration for half-maximal inhibition (IC50) is less than 1000 nM. Turning to `Cc1ccc(NC(=O)Nc2nc(C)cc(NCCCCN(C)C)n2)cc1` [Compound 245], the IC50 fell in the range of 1000 to 10000 nM.

Take `CNCCCNc1cc(C)nc(NC(=O)Nc2cccc(C(F)(F)F)c2)n1` [Compound 194, 1-(4-methyl-6-((3-(methylamino)propyl)amino)pyrimidin-2-yl)-3-(3-(trifluoromethyl)phenyl)urea]: the IC50 is less than 1000 nM. Under `COc1cccc(NC(=O)Nc2nc(C)cc(NCCN)n2)c1` [Compound 144] stands 1000 to 10000 nM. The value for `Cc1cc(NCCO)nc(NC(=O)Nc2cccc(OC(F)(F)F)c2)n1` [Compound 176] was less than 1000 nM; that for `Cc1cc(NCCCO)nc(NC(=O)Nc2ccc(F)c(C(F)(F)F)c2)n1` [Compound 102, 1-(4-fluoro-3-(trifluoromethyl)phenyl)-3-(4-((3-hydroxypropyl)amino)-6-methylpyrimidin-2-yl)urea] was less than 1000 nM; that for `CNCCNc1cc(C)nc(NC(=O)Nc2cccc(OC)c2)n1` [Compound 153, 1-(3-methoxyphenyl)-3-(4-methyl-6-((2-(methylamino)ethyl)amino)pyrimidin-2-yl)urea] was 1000 to 10000 nM. Under `Cc1cc(NCCN(C)C)nc(NC(=O)Nc2cccc(OC(F)(F)F)c2)n1` [Compound 174] stands 1000 to 10000 nM; under `COc1cccc(NC(=O)Nc2nc(C)cc(NCCCN(C)C)n2)c1` [Compound 141], 1000 to 10000 nM.

For `CCCNc1cc(C)nc(NC(=O)Nc2ccc3c(c2)OCO3)n1` [Compound 286], the half-inhibitory concentration (IC50) was less than 1000 nM. `Cc1cc(NCCO)nc(NC(=O)Nc2ccc(Cl)c(C(F)(F)F)c2)n1` [Compound 49] gave an IC50 of less than 1000 nM. Under `Cc1cc(NCCCN)nc(NC(=O)Nc2ccc(F)c(Cl)c2)n1` [Compound 158, 1-(4-((3-aminopropyl)amino)-6-methylpyrimidin-2-yl)-3-(3-chloro-4-fluorophenyl)urea] stands less than 1000 nM. `Cc1cc(NCCCN)nc(NC(=O)Nc2ccccc2)n1` [Compound 75] registered an IC50 of 1000 to 10000 nM. The value for `Cc1cc(NCCCc2cnc[nH]2)nc(NC(=O)Nc2ccc(Cl)c(C(F)(F)F)c2)n1` [Compound 59] was less than 1000 nM. Under `COc1cccc(NC(=O)Nc2nc(C)cc(NCC(C)O)n2)c1` (stereo not shown) [Compound 147] stands 1000 to 10000 nM; under `Cc1cc(NCCC(N)=O)nc(NC(=O)Nc2ccc(F)c(C(F)(F)F)c2)n1` [Compound 116], less than 1000 nM.

As for `CNCCCNc1cc(C)nc(NC(=O)Nc2cccc(C)c2)n1` [Compound 230], the concentration for half-maximal inhibition (IC50) was less than 1000 nM.

`CNCCNc1cc(C)nc(NC(=O)Nc2ccc3c(c2)OCO3)n1` [Compound 288, 1-(benzo[d][1,3]dioxol-5-yl)-3-(4-methyl-6-((2-(methylamino)ethyl)amino)pyrimidin-2-yl)urea] came in with an IC50 of less than 1000 nM. For the compound `Cc1cc(NCCC(N)=O)nc(NC(=O)Nc2ccc(OC(F)(F)F)cc2)n1` [Compound 93], the IC50 was less than 1000 nM.

As to `Cc1cc(NCCOCCO)nc(NC(=O)Nc2ccc(Cl)c(C(F)(F)F)c2)n1` [Compound 51], the half-maximal inhibitory concentration (IC50) is less than 1000 nM. The compound `COc1cccc(NC(=O)Nc2nc(C)cc(NCC(O)CO)n2)c1` (stereo not shown) [Compound 151] came in with a half-inhibitory concentration (IC50) of 1000 to 10000 nM.

Consider `Cc1cc(NCCCc2cnc[nH]2)nc(NC(=O)Nc2ccc(F)c(C(F)(F)F)c2)n1` [Compound 115], for which the concentration for half-maximal inhibition (IC50) is less than 1000 nM. In the case of `Cc1cc(NCC(C)O)nc(NC(=O)Nc2ccc(C(F)(F)F)cc2)n1` (stereo not shown) [Compound 198], the IC50 was less than 1000 nM. Under `CNCCCCNc1cc(C)nc(NC(=O)Nc2ccc(C)c(C)c2)n1` [Compound 270] stands less than 1000 nM; under `Cc1cc(NCCN(C)C)nc(NC(=O)Nc2ccc(F)c(Cl)c2)n1` [Compound 159], 1000 to 10000 nM; under `Cc1cc(NCCOCCO)nc(NC(=O)Nc2cccc(C(F)(F)F)c2)n1` [Compound 183], 1000 to 10000 nM. The value for `Cc1cc(NCCCN(C)C)nc(NC(=O)Nc2cccc(OC(F)(F)F)c2)n1` [Compound 172, 1-(4-((3-(dimethylamino)propyl)amino)-6-methylpyrimidin-2-yl)-3-(3-(trifluoromethoxy)phenyl)urea] was less than 1000 nM; that for `CNCCCNc1cc(C)nc(NC(=O)Nc2ccc(C)c(C)c2)n1` [Compound 269] was less than 1000 nM. The value for `COc1cccc(NC(=O)Nc2nc(C)cc(NCCCN)n2)c1` [Compound 143] was 1000 to 10000 nM. As to `COc1ccc(NC(=O)Nc2nc(C)cc(NCCCCN)n2)cc1` [Compound 137], the concentration for half-maximal inhibition (IC50) was less than 1000 nM.

Regarding `Cc1cc(NCCN(C)C)nc(NC(=O)Nc2cccc(C(F)(F)F)c2)n1` [Compound 189], the IC50 lay within 1000 to 10000 nM. Under `Cc1cc(NCCCN)nc(NC(=O)Nc2ccc(C(C)(C)C)cc2)n1` [Compound 303] stands less than 1000 nM; under `CCCNc1cc(C)nc(NC(=O)Nc2ccc(F)c(Cl)c2)n1` [Compound 165], less than 1000 nM; under `CNCCCN(C)c1cc(C)nc(NC(=O)Nc2ccc(F)c(C(F)(F)F)c2)n1` [Compound 113], 1000 to 10000 nM.

With `Cc1cc(NCCCCO)nc(NC(=O)Nc2ccc(F)c(C(F)(F)F)c2)n1` [Compound 106], the 50% inhibitory concentration (IC50) was less than 1000 nM. As to `COc1ccc(NC(=O)Nc2nc(C)cc(NCCc3ccccn3)n2)cc1` [Compound 134], the IC50 lay in the range of 1000 to 10000 nM. The value for `Cc1cc(NCCCCN(C)C)nc(NC(=O)Nc2ccc(F)c(C(F)(F)F)c2)n1` [Compound 104] was less than 1000 nM. In the case of `COc1ccc(NC(=O)Nc2nc(C)cc(NCCCN(C)C)n2)cc1` [Compound 125], the 50% inhibitory concentration (IC50) is less than 1000 nM. The value for `COC(=O)CCNc1cc(C)nc(NC(=O)Nc2ccc(OC(F)(F)F)cc2)n1` [Compound 92] was less than 1000 nM; that for `Cc1cc(NCCCN(C)C)nc(NC(=O)Nc2ccc3c(c2)OCO3)n1` [Compound 281, 1-(benzo[d][1,3]dioxol-5-yl)-3-(4-((3-(dimethylamino)propyl)amino)-6-methylpyrimidin-2-yl)urea] was 1000 to 10000 nM. The compound `Cc1cc(NCCCO)nc(NC(=O)Nc2ccc(Cl)cc2)n1` [Compound 41, 3-{2-[3-(p-Chlorophenyl)ureido]-6-methyl-4-pyrimidinylamino}-propanol] returned a concentration for half-maximal inhibition (IC50) of less than 1000 nM. The value for `CNCCCNc1cc(C)nc(NC(=O)Nc2ccc(C)cc2)n1` [Compound 248, 1-(4-methyl-6-((3-(methylamino)propyl)amino)pyrimidin-2-yl)-3-(p-tolyl)urea] was 1000 to 10000 nM; that for `CCCNc1cc(C)nc(NC(=O)Nc2cccc(C)c2)n1` [Compound 218] was less than 1000 nM. Under `Cc1ccc(NC(=O)Nc2nc(C)cc(NCCOCCO)n2)cc1` [Compound 238] stands 1000 to 10000 nM.

The compound `Cc1cc(NCC(O)CO)nc(NC(=O)Nc2ccccc2)n1` (stereo not shown) [Compound 78] registered an IC50 of less than 1000 nM. `Cc1cc(NCCCCN(C)C)nc(NC(=O)Nc2cccc(C(F)(F)F)c2)n1` [Compound 191]: the IC50 was less than 1000 nM. The compound `Cc1cc(NCCO)nc(NC(=O)Nc2cccc(C(F)(F)F)c2)n1` [Compound 184] gave a half-maximal inhibitory concentration (IC50) of less than 1000 nM. Under `CCCNc1cc(C)nc(NC(=O)Nc2ccc(C(F)(F)F)cc2)n1` [Compound 202] stands less than 1000 nM; under `Cc1cc(NCCO)nc(NC(=O)Nc2ccccc2)n1` [Compound 71], 1000 to 10000 nM; under `Cc1cc(NCCOCCO)nc(NC(=O)Nc2ccc(F)c(Cl)c2)n1` [Compound 166], less than 1000 nM. Under `Cc1cc(NCCO)nc(NC(=O)Nc2ccc(F)c(Cl)c2)n1` [Compound 161] stands less than 1000 nM. `CNCCNc1cc(C)nc(NC(=O)Nc2ccc(C)c(C)c2)n1` [Compound 268, 1-(3,4-dimethylphenyl)-3-(4-methyl-6-((2-(methylamino)ethyl)amino)pyrimidin-2-yl)urea]: the 50% inhibitory concentration (IC50) is 1000 to 10000 nM. `CNCCNc1cc(C)nc(NC(=O)Nc2ccc(F)c(Cl)c2)n1` [Compound 169, 1-(3-chloro-4-fluorophenyl)-3-(4-methyl-6-((2-(methylamino)ethyl)amino)pyrimidin-2-yl)urea] returned an IC50 of less than 1000 nM. The value for `Cc1ccc(NC(=O)Nc2nc(C)cc(NCCN(C)C)n2)cc1` [Compound 242] was 1000 to 10000 nM; that for `Cc1cc(NCC(C)O)nc(NC(=O)Nc2ccc(C)c(C)c2)n1` (stereo not shown) [Compound 262] was less than 1000 nM; that for `Cc1cc(NCCN)nc(NC(=O)Nc2ccc(Cl)c(Cl)c2)n1` [Compound 14] was less than 1000 nM.

As to `Cc1cccc(NC(=O)Nc2nc(C)cc(NCCOCCO)n2)c1` [Compound 217], the concentration for half-maximal inhibition (IC50) was less than 1000 nM. Under `Cc1ccc(NC(=O)Nc2nc(C)cc(NCCN)n2)cc1` [Compound 237] stands less than 1000 nM.
